# Reference: ChEMBL document CHEMBL1201862, “PubChem BioAssay data set” (2004)
# Active and inactive are the calls of the source.
# What was measured:
# [1] = target: T1, Corticotropin-releasing factor receptor 2/Corticotropin-releasing factor-binding protein (Homo sapiens, UniProt P24387+Q13324); experiment: Dose Response confirmation of uHTS hits for small molecule antagonists of the CRF-binding protein and CRF-R2 receptor complex.; assay type: functional; conditions: read-out: IC50_Mean
# T1 sequence (Q13324 whole entry): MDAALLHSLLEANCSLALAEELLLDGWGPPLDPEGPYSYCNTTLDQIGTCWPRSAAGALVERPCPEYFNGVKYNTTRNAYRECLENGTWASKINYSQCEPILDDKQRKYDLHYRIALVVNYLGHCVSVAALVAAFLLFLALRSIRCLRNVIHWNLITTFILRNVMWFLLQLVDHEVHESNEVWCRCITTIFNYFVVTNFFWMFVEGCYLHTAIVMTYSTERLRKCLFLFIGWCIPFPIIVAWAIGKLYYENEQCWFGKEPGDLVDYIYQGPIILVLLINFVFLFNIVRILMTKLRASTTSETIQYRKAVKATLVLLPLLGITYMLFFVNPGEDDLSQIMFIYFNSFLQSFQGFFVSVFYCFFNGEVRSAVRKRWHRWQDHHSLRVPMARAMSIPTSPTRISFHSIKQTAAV
# T1 sequence (P24387 whole entry): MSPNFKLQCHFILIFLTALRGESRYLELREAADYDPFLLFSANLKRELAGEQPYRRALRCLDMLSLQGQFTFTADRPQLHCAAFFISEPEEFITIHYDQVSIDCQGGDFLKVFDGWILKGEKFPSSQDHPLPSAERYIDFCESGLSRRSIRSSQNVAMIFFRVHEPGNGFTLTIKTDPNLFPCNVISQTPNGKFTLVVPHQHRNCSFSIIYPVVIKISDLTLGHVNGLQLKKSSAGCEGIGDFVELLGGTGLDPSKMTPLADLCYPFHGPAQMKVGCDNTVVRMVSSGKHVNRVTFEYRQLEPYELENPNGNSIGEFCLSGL
# [2] = target: T1, Corticotropin-releasing factor receptor 2/Corticotropin-releasing factor-binding protein; experiment: activators of CRF receptor 2 with binding protein – uHTS hits, confirmation (AID 602473); assay type: functional; conditions: read-out: EC50_Mean
# [3] = Luminescence Cell-Based Dose Response HTS to Identify Activators of Luciferase Translation or Activity in H4 […] Cells. [Related pubchem assays: 1829 (Project Summary), 1814 (Primary HTS)]; assay type: functional
# [4] = system: H4; experiment: Luminescence Cell-Based Dose Response HTS to Identify Activators of 5'UTR Stem-Loop Driven Prion Protein mRNA Translation in H4 Neuroglioblastoma Cells. [Related pubchem assays: 1829 (Project Summary), 1814 (Primary HTS)]; assay type: functional; conditions: Homo sapiens
# [5] = target: T2, Calpain-2 catalytic subunit (Sus scrofa, UniProt P43367); experiment: m-calpain protease blockers, concentration series – biochemical, fluorogenic peptide substrate, dose response (AID 1420); assay type: functional
# T2 sequence (P43367 whole entry): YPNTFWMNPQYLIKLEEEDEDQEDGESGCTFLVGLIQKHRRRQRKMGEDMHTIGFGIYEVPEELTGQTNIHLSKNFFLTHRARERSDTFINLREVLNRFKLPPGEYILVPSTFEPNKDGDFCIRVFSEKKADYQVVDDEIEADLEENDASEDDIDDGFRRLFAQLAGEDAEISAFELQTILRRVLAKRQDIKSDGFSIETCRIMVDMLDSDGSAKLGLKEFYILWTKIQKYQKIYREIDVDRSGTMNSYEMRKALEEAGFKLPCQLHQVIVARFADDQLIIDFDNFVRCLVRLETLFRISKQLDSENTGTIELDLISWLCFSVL
# [6] = target: Cytochrome P450 3A4 (Homo sapiens, UniProt P08684);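 further: CYP3A4 tested as one member of a cytochrome P450 panel screen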
# [7] = alpha-synuclein stem-loop luciferase translation blockers – H4 neuroglioma cells, luminescence, confirmation (AID 1988); assay type: functional, cell-based
# [8] = luciferase reporter signal suppression in cells – H4 neuroglioma cells, luminescence, dose response (AID 1990); assay type: functional, cell-based
# [9] = Luminescence Cell-Based Dose Response HTS to Identify Inhibitors of 5'UTR Stem-Loop Driven Prion Protein mRNA Translation in H4 Neuroglioblastoma Cells. [Related pubchem assays: 1827 (Project Summary), 1813 (Primary HTS)]; assay type: functional
# [10] = target: Cytochrome P450 2C19 (Homo sapiens, UniProt P33261); experiment: Cytochrome panel assay with activity outcomes. Panel member name: p450-cyp2c19 Compounds with AC50 equal or less than 10 uM are considered active; assay type: functional
# [11] = target: T3, Streptokinase A (Streptococcus pyogenes serotype M1, UniProt P10520); experiment: viability-normalized secreted streptokinase activity reduction – plasminogen activation absorbance, OD405, dose response (AID 1914); assay type: functional, Streptococcus pyogenes M1 GAS;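 further: secreted streptokinase activity via plasminogen activation per viability signal from cell pellet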
# T3 sequence (P10520 whole entry): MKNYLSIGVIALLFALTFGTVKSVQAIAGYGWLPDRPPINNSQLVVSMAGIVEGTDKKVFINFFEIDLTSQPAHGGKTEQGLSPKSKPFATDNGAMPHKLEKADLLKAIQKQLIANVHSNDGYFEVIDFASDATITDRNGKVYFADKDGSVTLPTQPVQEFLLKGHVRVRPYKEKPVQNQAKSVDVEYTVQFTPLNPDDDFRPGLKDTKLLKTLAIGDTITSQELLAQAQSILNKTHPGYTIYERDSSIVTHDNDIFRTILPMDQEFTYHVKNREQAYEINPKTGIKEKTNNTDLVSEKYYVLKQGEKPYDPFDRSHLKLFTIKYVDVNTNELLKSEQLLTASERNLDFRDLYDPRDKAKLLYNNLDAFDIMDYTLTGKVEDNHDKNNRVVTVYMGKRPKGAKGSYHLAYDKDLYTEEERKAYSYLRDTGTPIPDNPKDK
# [12] = system: Streptococcus; experiment: GAS UMAA2166 growth inhibition – luminescence, BacTiterGlo, counter-screen for streptokinase expression inhibitor project, dose response (AID 1915); assay type: functional, organism-based;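 further: potency for reduction of bacterial viability or growth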
# [13] = system: Streptococcus sp. 'group A'; experiment: Streptococcus pyogenes SK(-)GAS viability under kanamycin – luminescence, BacTiterGlo, confirmation, counter-screen for streptokinase expression inhibitor project, dose response (AID 1900); assay type: functional, organism-based
# [14] = target: T4, Cytochrome P450 1A2 (Homo sapiens, UniProt P05177);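 further: PubChem cytochrome P450 panel assay, CYP1A2 panel member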
# T4 sequence (P05177 whole entry): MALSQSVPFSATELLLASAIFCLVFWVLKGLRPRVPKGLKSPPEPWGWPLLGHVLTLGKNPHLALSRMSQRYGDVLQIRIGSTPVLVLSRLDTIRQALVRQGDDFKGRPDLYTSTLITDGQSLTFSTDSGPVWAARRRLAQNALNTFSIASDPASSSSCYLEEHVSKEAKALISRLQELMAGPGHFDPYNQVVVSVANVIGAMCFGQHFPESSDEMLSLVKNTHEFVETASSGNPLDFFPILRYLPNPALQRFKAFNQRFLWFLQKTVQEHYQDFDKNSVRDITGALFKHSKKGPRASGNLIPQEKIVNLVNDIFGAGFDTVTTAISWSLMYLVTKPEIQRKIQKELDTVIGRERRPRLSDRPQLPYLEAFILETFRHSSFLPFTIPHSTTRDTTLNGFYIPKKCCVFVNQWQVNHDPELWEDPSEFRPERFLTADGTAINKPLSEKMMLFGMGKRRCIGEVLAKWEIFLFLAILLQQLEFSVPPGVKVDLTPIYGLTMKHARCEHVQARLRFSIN
# [15] = target: Cytochrome P450 2C9 (Homo sapiens, UniProt P11712)
# Chain of Cytochrome P450 2C9 (P11712 whole entry): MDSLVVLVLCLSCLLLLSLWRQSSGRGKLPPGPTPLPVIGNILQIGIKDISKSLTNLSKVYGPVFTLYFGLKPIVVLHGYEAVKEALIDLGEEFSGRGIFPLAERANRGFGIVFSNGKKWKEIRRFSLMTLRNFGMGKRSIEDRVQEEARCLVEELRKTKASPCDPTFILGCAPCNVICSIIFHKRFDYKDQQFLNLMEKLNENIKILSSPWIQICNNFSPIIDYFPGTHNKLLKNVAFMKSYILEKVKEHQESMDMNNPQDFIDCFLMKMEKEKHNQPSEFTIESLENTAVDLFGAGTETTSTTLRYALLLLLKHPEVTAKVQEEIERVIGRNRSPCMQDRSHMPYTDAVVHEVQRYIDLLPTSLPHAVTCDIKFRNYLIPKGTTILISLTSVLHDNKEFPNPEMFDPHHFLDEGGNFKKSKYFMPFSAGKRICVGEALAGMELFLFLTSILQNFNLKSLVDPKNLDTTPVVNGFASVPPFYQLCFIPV
# Chain of Cytochrome P450 3A4 (P08684 whole entry): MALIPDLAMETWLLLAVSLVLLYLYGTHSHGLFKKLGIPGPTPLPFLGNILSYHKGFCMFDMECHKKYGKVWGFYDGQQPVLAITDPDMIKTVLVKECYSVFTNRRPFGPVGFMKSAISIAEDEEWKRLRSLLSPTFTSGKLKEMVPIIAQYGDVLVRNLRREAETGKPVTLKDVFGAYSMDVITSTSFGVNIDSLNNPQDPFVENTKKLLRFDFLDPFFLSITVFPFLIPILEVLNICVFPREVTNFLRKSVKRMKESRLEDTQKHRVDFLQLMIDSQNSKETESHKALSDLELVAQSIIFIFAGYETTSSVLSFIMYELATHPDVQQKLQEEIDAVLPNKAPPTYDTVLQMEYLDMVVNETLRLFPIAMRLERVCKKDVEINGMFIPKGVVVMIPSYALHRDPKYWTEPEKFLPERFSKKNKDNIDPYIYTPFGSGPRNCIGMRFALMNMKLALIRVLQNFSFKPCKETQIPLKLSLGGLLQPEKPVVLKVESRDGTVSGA
# Chain of Cytochrome P450 2C19 (P33261 whole entry): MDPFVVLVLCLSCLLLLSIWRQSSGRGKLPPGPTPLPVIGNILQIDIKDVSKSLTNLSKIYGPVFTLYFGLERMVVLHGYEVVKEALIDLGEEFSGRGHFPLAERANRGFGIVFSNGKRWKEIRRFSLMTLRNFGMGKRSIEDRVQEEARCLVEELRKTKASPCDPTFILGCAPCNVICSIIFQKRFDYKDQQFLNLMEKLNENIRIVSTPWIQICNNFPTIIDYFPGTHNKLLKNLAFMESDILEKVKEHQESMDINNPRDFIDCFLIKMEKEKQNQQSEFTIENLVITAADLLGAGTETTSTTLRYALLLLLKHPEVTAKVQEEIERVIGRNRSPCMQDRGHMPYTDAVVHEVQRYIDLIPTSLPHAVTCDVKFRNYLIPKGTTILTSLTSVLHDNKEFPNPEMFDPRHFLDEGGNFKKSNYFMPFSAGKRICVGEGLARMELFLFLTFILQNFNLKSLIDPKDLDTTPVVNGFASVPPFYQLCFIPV
smiles,measurement,setting,value
N#CNC(=Nc1cccc(F)c1)SCc1ccccc1,IC50,[1],14 µM (active)
same,EC50,[2],> 53 µM (inactive)
COc1cc(NC(=S)NCCC(c2ccccc2)c2ccccc2)c(OC)cc1Cl,IC50,[1],4.69 µM (active)
same,EC50,[2],> 53 µM (inactive)
CCOC(=O)c1ccccc1NC1c2ccccc2C(=O)N1c1ccc(C)cn1 (configuration not stated),EC50,[3],9.17 µM (active)
same,EC50,[4],18.5 µM (active)
COc1ccc(C(NC(=O)C(C)C)c2c(O)ccc3ccccc23)cc1OC (configuration not stated),IC50,[5],18.4 µM (not active)
CCc1nc(N2CCC3(CC2)OCCO3)c2nnn(Cc3ccccc3Cl)c2n1,AC50,[6],15.8 µM (inconclusive)
Cc1ccc(-c2csc(/C=C3\SC(C)C(=O)N3CC(=O)Nc3ccccc3F)n2)cc1 (configuration not stated),IC50,[5],10.6 µM (active)
CCCCCC(=O)Nc1ccccc1N1CCOCC1,EC50,[7],> 120 µM (not active)
same,EC50,[8],> 120 µM (not active)
same,EC50,[9],> 120 µM (not active)
CCS(=O)(=O)NCCc1cc2ccc(C)cc2nc1O,AC50,[10]; read-out: AC50,10 µM (inconclusive)
same,AC50,[6],39.8 µM (inconclusive)
Cc1[nH]c2ccccc2c1SCCNC(=O)c1ccc(S(=O)(=O)N2CCCC2)cc1,IC50,[1],> 47.1 µM (inactive)
same,EC50,[2],> 53 µM (inactive)
O=C(CC1CC2CCC1C2)OCC(=O)c1c[nH]c2ccccc12 (configuration not stated),IC50,[5],27.5 µM (not active)
Cc1ccccc1CN(C)C(=O)COC(=O)c1ccc2[nH]c(C)c(C)c2c1,IC50,[1],> 47.1 µM (inactive)
same,EC50,[2],> 53 µM (inactive)
CS(=O)(=O)N1CCC[C@@]2(CCN(c3ccccn3)C2)C1,AC50,[6],20 µM (inconclusive)
CCN(CC)S(=O)(=O)c1ccc(C(=O)NCc2ccc3c(c2)OCO3)cc1,IC50,[5],> 50 µM (not active)
Cc1cccc(C(=O)N2CCN(c3ccc([N+](=O)[O-])c(NCc4ccco4)c3)CC2)c1,AC50,[6],28.2 µM (inconclusive)
CCN(CC)CCCCCCCCOC(=O)c1cc(OC)c(OC)c(OC)c1,AC50,[6],10 µM (inconclusive)
O=C(Oc1ccccc1)N1CCC2(CCCN(c3cccc(-c4ccccc4)c3)C2)CC1,AC50,[6],15.8 µM (inconclusive)
COc1ccc(C(=O)Nc2ccc(S(=O)(=O)NC(C)(C)C)cc2)cc1[N+](=O)[O-],IC50,[5],4.14 µM (not active)
c1ccc(CSc2nnc3c4ccccc4c4ccccc4c3n2)cc1,AC50,[6],3.98 µM (inconclusive)
Cc1ccc(C(=O)N2C(=O)C(c3ccccc3)Oc3ccccc32)cc1 (configuration not stated),EC50,[7],> 120 µM (not active)
same,EC50,[8],> 120 µM (not active)
same,EC50,[9],> 120 µM (not active)
CCOc1ccc2c(c1)s/c(=N/C(=O)C1CC1)n2C,EC50,[3],0.508 µM (active)
same,EC50,[4],63.4 µM (active)
Nc1cc(O)nc(SCCSc2ccccc2F)n1,EC50,[7],1.29 µM (active)
same,EC50,[8],< 0.1 µM (active)
same,EC50,[9],22.3 µM (active)
Cc1ncsc1CCOC(=O)C1C2CC3CC(C2)CC1C3 (configuration not stated),IC50,[5],45.8 µM (not active)
COc1ccc(S(=O)(=O)Oc2cccc(/C=N/NC3=NC(=O)C(CC(=O)O)S3)c2)cc1 (configuration not stated),IC50,[5],> 50 µM (not active)
O=C1C[N+]([O-])=Cc2[nH]c3ccccc3c2N1c1ccc([N+](=O)[O-])cc1,IC50,[5],4.76 µM (not active)
CCN(c1ccccc1)S(=O)(=O)c1ccc(NC(=S)NC(=O)c2cccs2)cc1,AC50,[6],2.24 µM (inconclusive)
CCC(=O)OCC(=O)c1cc(C)n(-c2ccc(Br)cc2)c1C,IC50,[5],6.49 µM (not active)
COc1ccccc1-n1c(=S)sc2c(=O)n(Cc3ccco3)c(SC)nc21,IC50,[1],> 47.1 µM (inactive)
same,EC50,[2],> 53 µM (inactive)
CNC(=O)CN(C1CCCCC1)S(=O)(=O)c1ccc(F)cc1,IC50,[1],> 47.1 µM (inactive)
same,EC50,[2],> 53 µM (inactive)
O=[N+]([O-])c1ccc(Cl)cc1Sc1nc2ccccc2o1,EC50,[11],6.18 µM (active)
same,EC50,[7],> 120 µM (not active)
same,EC50,[8],> 120 µM (not active)
same,EC50,[12],7.26 µM (active)
same,EC50,[13],2.25 µM (active)
same,EC50,[9],> 120 µM (not active)
O=C(Nc1nnc(C2CC2)s1)C1Cc2ccccc2CN1S(=O)(=O)c1ccccc1F (configuration not stated),EC50,[3],0.123 µM (active)
same,EC50,[4],> 120 µM (not active)
CC(OC(=O)c1ccccc1Nc1ccc(SC(F)F)cc1)C(N)=O (configuration not stated),IC50,[5],12 µM (not active)
O=C(/C=C\Nc1ccc(S(=O)(=O)Nc2ncccn2)cc1)c1cccc2ccccc12,EC50,[7],> 120 µM (not active)
same,EC50,[8],18.3 µM (active)
same,EC50,[9],> 120 µM (not active)
CCOCCCN(CC(=O)NC1CCCC1)C(=O)C(=O)Nc1ccc2c(c1)OCCO2,IC50,[1],> 47.1 µM (inactive)
same,EC50,[2],> 53 µM (inactive)
CCOC(=O)C1CCCN(S(=O)(=O)c2ccccc2)C1 (configuration not stated),IC50,[1],> 47.1 µM (inactive)
same,EC50,[2],> 53 µM (inactive)
Cc1ccc2c(CC(=O)NCC(=O)Nc3c(C)cccc3C)coc2c1,IC50,[1],> 47.1 µM (inactive)
same,EC50,[2],> 53 µM (inactive)
COCCCNc1nc(N)c([N+](=O)[O-])c(Nc2cc(OC)ccc2OC)n1,EC50,[7],17.8 µM (active)
same,EC50,[8],17.4 µM (active)
same,EC50,[9],13.5 µM (active)
CCNc1ncc2nc(-c3ccc(OC)cc3)c(=O)n(Cc3cccs3)c2n1,AC50,[6],7.94 µM (inconclusive)
same,AC50,[14],0.631 µM (inconclusive)
Cc1ccc(/N=C/c2nc(/C=C/c3cccc([N+](=O)[O-])c3)oc2O)cc1,AC50,[10]; read-out: AC50,7.94 µM (inconclusive)
same,AC50,[6],3.16 µM (inconclusive)
same,AC50,[15],17.8 µM (inconclusive)
same,AC50,[14],2 µM (inconclusive)
O=C1[C@@H]2[C@H]3[C@H](O)[C@H](O)C/C(=N/OC[C@@H](O)COCc4ccco4)[C@@H]3CC[C@H]2C(=O)N1c1ccc(F)cc1F,AC50,[10],inconclusive
same,AC50,[6],3.16 µM (inconclusive)
